Entries after “also recorded” stand apart in the source; their conditions may differ.
Assays:
HT22 cells [1] = assay: Hypoxia/reoxygenation-induced cell death, LDH release assay; format: cell-based
Procedure: (§1) HT22 cells were cultured in DMEM containing 10% FBS in a 10% CO2 incubator at 37° C.
(§2) Hypoxia loading was performed by using an oxygen absorber/CO2 generator AnaeroPack Kenki For Cell™, and reoxygenation was performed by restoring the condition to normoxia.
LDH assay was conducted using a supernatant of a medium of cells treated as intended as a sample and a measurement kit (LDH cytotoxic test).
Specifically, the cells were cultured in a 96-well assay plate and treated as intended. Then, 50 μL of only the medium was collected and transferred to a newly prepared plate. A coloring reagent was added to each well. After incubation for 20 minutes, 100 μL of a reaction stop solution was added thereto, and the absorbance at 570 nm was measured using a microplate reader. The results are indicated relative to the absorbance of control cells defined as 100%.
LDH release was measured after hypoxia for 18 hours (H18) and subsequent reoxygenation for 24 hours (R24). Cells placed under normoxia for 42 (18+24) hours (N42) were used as a control. GR103691 was added immediately before reoxygenation (or after 18-hour culture to the control cells).
LDH release was measured after hypoxia for 18 hours (H18) and subsequent reoxygenation for 24 hours (R24). Cells placed under normoxia for 42 (18+24) hours (N42) were used as a control. Nafadotride was added immediately before reoxygenation (or after 18-hour culture for the control cells).

HT22 cells [2] = assay: Glutamic acid-induced cell death, MTT assay; format: cell-based; details: MTT 24 hours after glutamic acid, added immediately before glutamic acid
Procedure: (§3) HT22 cells were cultured in DMEM containing 10% FBS in a 10% CO2 incubator at 37° C. MTT assay was conducted according to a ordinary method by using cells treated as intended as a sample. Specifically, the cells were cultured in a 96-well assay plate and treated as intended. Then, 10 μL of an MTT solution was added to each well, followed by incubation for 4 hours. 100 μL of a reaction stop solution was added thereto. The plate was left overnight, and the absorbance (measurement wavelength: 570 nm, control wavelength: 655 nm) was then measured using a microplate reader. The results are indicated relative to the absorbance of control cells defined as 100%. In this context, the MTT value is a value that indicates mitochondrial reductive capacity. This value correlates with cell viability in many cases and is therefore used as an index of cell viability. It has been confirmed as to the glutamic acid-induced cell death of HT22 cells that the results of MTT assay correlate with cell viability. MTT assay was conducted 24 hours after addition of glutamic acid. GR103691 was added immediately before the addition of glutamic acid (Glu).

HT22 cells [3] = assay: Tunicamycin-induced cell death, MTT assay; format: cell-based; details: MTT 24 hours after tunicamycin, added immediately before tunicamycin
Procedure: as §3, with “tunicamycin (TM).” for “glutamic acid.”, “tunicamycin (TM).” for “glutamic acid (Glu).”

HT22 cells [4] = assay: Intracellular reactive oxygen species (ROS) assay with H2DCFDA after hypoxia-reoxygenation loading; format: cell-based; details: 3 μM, added immediately before reoxygenation, hypoxia 18 h, reoxygenation 3 h
Procedure: as §1, §2
Intracellular ROS levels were measured by using H2DCFDA. Cells were treated as intended and then treated with 5 μM H2DCFDA. After 15 minutes, the cells were observed under a fluorescence microscope (480 nm/526 nm).
Time-dependent change of ROS was examined during reoxygenation for 12 hours after hypoxia for 18 hours (H18). Cells placed under normoxia for the same hours (N30) were used as a control. GR103691 was added at a concentration of 3 μM immediately before reoxygenation (or after 18-hour culture to the control cells).

hippocampal CA1 region = assay: Mouse cerebral ischemia/reperfusion model, FJB and ssDNA staining of hippocampal CA1 region; format: in vivo, C57BL/6J mice; details: 72 hours after reperfusion
Procedure: Male C57BL/6J mice (9-12 week old) were used. After halothane anesthesia, the left and right common carotid arteries were ligated for 17 minutes while the cerebral blood flow was monitored. Then, the blood flow was resumed to prepare a cerebral ischemia/reperfusion model. Paraffin sections of the brain were prepared 72 hours after reperfusion according to an ordinary method and immunostained with Fluoro Jade B (FJB) that stains dead cells green or with single-stranded DNA (ssDNA) that permits detection of apoptosis cells by the staining of nuclear fragmentation. The cells were observed under a microscope. GR103691 was administered at a dose of 1, 3, or 10 mg/kg from the tail vein of each mouse within 10 minutes after reperfusion. Moreover, for comparison, edaravone (manufactured by CALBIOCHEM) used for improving neurological symptoms, problems with movement of daily living, and dysfunction at the acute stage of brain infarction was administered at a dose of 3 or 10 mg/kg to each mouse. A saline-administered group and a sham group without only ischemia treatment were observed as controls.
In FIG. 7, the bright green color represents apoptosis cells. Moreover, the number of FJB-positive cells was counted to determine its proportion to the total number of cells (FIG. 8). The results of each group are indicated as mean±standard error.

[5] = HT22 cells, added immediately before reoxygenation
[6] = HT22 cells, hypoxia 18 h, reoxygenation 24 h, added immediately before reoxygenation
[7] = 10 mg/kg from the tail vein within 10 minutes after reperfusion
[8] = 1, 3, or 10 mg/kg from the tail vein within 10 minutes after reperfusion

Structure (SMILES)	LDH release of the control cells (HT22 cells [1]; HT22 cells under normoxia 42 h (N42), added after 18-hour culture)	increase of LDH release caused by H18/R24 (HT22 cells [1]; [5])	LDH release of H18/R24-treated cells (hypoxia/reoxygenation-induced cell death) (HT22 cells [1]; [6])	concentration at which the reduction of LDH release of H18/R24-treated cells was significant (HT22 cells [1]; [6]) [µM]	reduction of MTT value caused by glutamic acid (glutamic acid-induced cell death) (HT22 cells [2])	reduction of MTT value caused by TM (tunicamycin-induced cell death) (HT22 cells [3])	transient increase of ROS in H18/R3-treated cells (H2DCFDA-positive cells) (HT22 cells [4])	cell death in the hippocampal CA1 region (FJB-positive cells) (hippocampal CA1 region; [7])	ssDNA-positive cells in the hippocampal CA1 region (hippocampal CA1 region; [7])	cell death in the hippocampal CA1 region (FJB-positive cells) (hippocampal CA1 region; [8])	ssDNA-positive cells in the hippocampal CA1 region (hippocampal CA1 region; [8])	decreasing effect on ssDNA-positive cells in the hippocampal CA1 region, compared with GR103691 (hippocampal CA1 region; edaravone 3 or 10 mg/kg)	inhibitory effect on cell death in the hippocampal CA1 region (FJB-positive cells), compared with GR103691 (hippocampal CA1 region; edaravone 3 or 10 mg/kg)
COc1ccccc1N1CCN(CCCCNC(=O)c2ccc(-c3ccc(C(C)=O)cc3)cc2)CC1 [GR103691, 4′-acetyl-N-[4-[4-(2-methoxyphenyl)-1-piperazinyl]butyl]-[1,1′-biphenyl]-4-carboxamide]	not influenced	almost the maximum effect	reduced the LDH release of the H18/R24-treated cells in a concentration-dependent manner	≥ 1	significantly recovered the reduction of MTT value	did not influence the reduction of MTT value	inhibited	significantly inhibited	significantly decreased	inhibited such cell death in a dose-dependent manner	decreased by GR103691 in a dose-dependent manner		
CCCCN1CCCC1CNC(=O)c1cc(C#N)c2ccccc2c1OC (centres unmarked) [nafadotride, reference compound]		did not inhibit apoptosis; also recorded: did not influence increase of LDH release											
CC1=NN(c2ccccc2)C(=O)C1 [edaravone, reference compound]												almost the same level	almost the same level

— patent publication US20110178100A1, “APOPTOSIS INHIBITOR” (NIHON UNIVERSITY, priority 2008, published 2011)
